Entries after “also recorded” stand apart in the source; their conditions may differ. Values belong to the compound of their own block, whether it stands above or below them.
How the values were obtained:
C. auris [1] = conditions: cited from earlier work
C. albicans [2] = assay: Checkerboard assay with clinical antifungals (FICI); type: cell-based, Candida albicans; conditions: for MIC: Candida albicans, read-out: MICA (MIC of each drug alone)
Method: (§1) To determine if compounds interacted with clinically used antifungal drugs, checkerboard assays were performed and fractional inhibitory concentration indices were determined. […] The FICI for compound B and fluconazole is 8.25 due to the 8-fold increase in fluconazole concentration in the combination; however, the concentration of compound B at FIC is reduced by 4-fold relative to compound B as a single agent (Table 3).

A. fumigatus [3] = assay: Planktonic MIC, CLSI guidelines; type: cell-based; conditions: Aspergillus fumigatus
Method: (§2) Minimum inhibitory concentrations were determined using CLSI guidelines (Beattie & Krysan, 2021; Wiederhold, 2021). All yeasts were cultured overnight in 3 mL YPD at 30° C., then washed twice in sterile PBS. Two-fold serial dilutions of each compound were prepared in RMPI+MOPS pH 7 (Gibco RPMI 1640 with L-glutamine [11875-093] and 0.165M 352 MOPS), then 1×10^3 cells were added per well. Plates were incubated at 37° C. for 24 hours (C. albicans and S. cerevisiae) or 72 hours (C. neoformans). For A. fumigatus and F. oxysporum wells were inoculated with 1.25×10^4 conidia. Plates were incubated at 37° C. for 48 hours for A. fumigatus and 72 hours for F. oxysporum. All MICs are defined as the well with complete growth inhibition as determined by visual inspection with the exception of MICs of fluconazole against C. albicans where the MIC is defined as at least 50% reduction in growth compared to the control.

C. glabrata = assay: Planktonic MIC, CLSI guidelines; type: cell-based; conditions: Nakaseomyces glabratus; strain KK2001
Method: as §2

C. neoformans = assay: Planktonic MIC, CLSI guidelines; type: cell-based; conditions: Cryptococcus neoformans
Method: as §2

F. oxysporum = assay: Planktonic MIC, CLSI guidelines; type: cell-based; conditions: Fusarium oxysporum; strain DUMC Fo
Method: as §2

C. albicans [4] = assay: Planktonic MIC, CLSI guidelines; type: cell-based, Candida albicans
Method: as §2

C. auris [5] = assay: Planktonic MIC, CLSI guidelines; type: cell-based, Candida auris; conditions: Candidozyma auris
Method: as §2

P. aeruginosa = assay: Antibacterial MIC; type: cell-based, Pseudomonas aeruginosa
S. aureus = assay: Antibacterial MIC; type: cell-based; conditions: Staphylococcus aureus; strain Newman
A. fumigatus [6] = assay: Checkerboard assay with clinical antifungals (FICI); type: cell-based, Aspergillus fumigatus; conditions: for MIC: Aspergillus fumigatus, read-out: MICA (MIC of each drug alone); for MIC / MICC (MIC in combination): checkerboard B x Voriconazole
Method: as §1

[7] = test system: A. fumigatus CEA10 hyphae; assay: Metabolic activity of hyphae/biofilms (resazurin); type: cell-based; conditions: Aspergillus fumigatus, CEA10HYPHAE, 24 h pre-incubation, 24 h exposure, read-out: hyphal metabolic activity IC50
From the text: (§3) CLSI testing of antifungal activity of molds is based on inoculation with conidia and, therefore, measures inhibition of germination (Widerhold, 2021). For example, voriconazole is the gold standard for treatment of pulmonary infection and inhibits germination. The most important A. fumigatus infection that requires non-systemic therapy is fungal keratitis (Hoffman et al., 2022). At the time of clinical presentation, A. fumigatus is exclusively in the hyphal form. […] A. fumigatus CEA10 was incubated for 24 hours prior to exposure to a dilution series of compound B or C for an additional 24 hours. The metabolic activity of the cultures was determined using resazurin as previously described (Mao et al., 2020). […] To further characterize the mode of action of the KAPs against A. fumigatus hyphae, CEA10 was treated with compound B for 24 hours and then the cells were stained with propidium iodide, a dye that is excluded from cells with intact membranes (FIG. 2D).

[8] = test system: A. fumigatus CEA10 hyphal cells; assay: Propidium iodide staining and DIC imaging of hyphae; type: cell-based, Aspergillus fumigatus; conditions: 16 μg/mL, 24 hours
From the text: as §3

red blood cells = assay: Red blood cell lysis assay; type: cell-based, sheep; conditions: 2 h, normalized to max lysis by triton-x
Method: Hemolysis assays were performed with defibrinated sheep's blood (Lampire, Cat #7239001). Blood was washed three times with PBS then resuspended to about 50% hematocrit in PBS. A two-fold dilution series of the compounds in 200 μL PBS with equal DMSO concentration across the series, then red blood cells were added with a final concentration of 2% hematocrit. Cells were incubated at RT for 2 hours in a v-bottom microtiter plate, then plates were spun down and supernatant was transferred to a flat bottom microtiter plate for absorbance measurement at 570 nm. Compounds were tested in technical triplicate in at least two independent assays performed on different days.

HepG2 cells = assay: Mammalian cell culture toxicity assay (LDH release and XTT); type: cell-based, human
Method: HepG2 cells (ATCC, #) were maintained and cultured in HepG2 media (DMEM (Gibco, Cat #11965-092) with 5% FBS, 20 mM Glutamine, and Penicillin/Streptomycin) at 37° C. with 5% CO2. Cells were seeded in 96-well plates at a density of 1.25×10^4 cells/well and incubated overnight at 37° C. with 5% CO2, then media was removed and replaced with media containing a two-fold dilution series of compounds with equal DMSO concentrations across all wells including no compound controls. Cells were incubated for an additional 24 hours. Supernatant was removed and used to quantify lactate dehydrogenase release using the CyQuant LDH assay kit (Invitrogen, Cat #C20300) following the manufacturer's directions. LDH signal was normalized to a max lysis control. The remaining cells were then used to quantify cellular metabolism by XTT. Briefly, cells were washed, then 0.9 mg/mL XTT (Sigma, CAT #X4626)+320 μg/mL PMS ([…] methosulfate; Sigma, Cat #P9625) in HepG2 media was added to each well. Plates were incubated at 37° C., with 5% CO2 for 2 hours, then absorbance was measured at 490 nm.

C. albicans [9] = assay: Planktonic MIC, CLSI guidelines; type: cell-based, Candida albicans; conditions: data not shown
[10] = test system: medically important yeasts and molds; assay: Antifungal activity, general statements; type: cell-based
Method: as §2

C. albicans [11] = conditions: Yamashita et al., 2019; cited from earlier work
human cell lines = conditions: Kim et al., 2021; cited from earlier work
[12] = checkerboard B x Amphotericin B
[13] = A. fumigatus CEA10, Table 4, read-out: A. fumigatus MIC
[14] = Candida albicans, C. albicans SC5314, Table 4, read-out: C. albicans MIC

SMILES: [H]/N=C(\N/C(=N/[H])NCCCCCCNC(=N)NC(=N)Nc1ccc(Cl)cc1)Nc1ccc(Cl)cc1 [2% chlorhexidine, chlorhexidine]
- reduction of fungal burden of colonized porcine skin (C. auris [1]; 72 hour experiment, three daily applications, Johnson et al., 2021): about 0.5 log10

SMILES: C[C@@H]1[C@H](O)[C@@H](C)/C=C/C=C/C=C/C=C/C=C/C=C/C=C/[C@H](O[C@@H]2O[C@H](C)[C@@H](O)[C@H](N)[C@@H]2O)C[C@@H]2O[C@](O)(C[C@@H](O)C[C@@H](O)[C@H](O)CC[C@@H](O)C[C@@H](O)CC(=O)O[C@H]1C)C[C@H](O)[C@H]2C(=O)O [Amphotericin B, reference compound]
- MICA (MIC of each drug alone) (C. albicans [2]; [12]): 0.5 µg/mL
- MICC (MIC in combination) (C. albicans [2]; [12]): 0.25 µg/mL

SMILES: Cc1cc[n+](CC(=O)c2ccc(-c3ccc(Oc4ccccc4)cc3)cc2)cc1.[Br-] [Compound B]
- MIC (A. fumigatus [3]; strain AF293, read-out: MIC): 1 µg/mL
- MIC (A. fumigatus [3]; strain CEA10, read-out: MIC): 8 µg/mL
- MIC (A. fumigatus [3]; strain Cas^R, read-out: MIC): 16 µg/mL
- MIC (A. fumigatus [3]; strain SPF98, read-out: MIC): 16 µg/mL
- MIC (C. glabrata): 1 µg/mL
- MIC (C. neoformans; strain DUMC 118.00): 2 µg/mL
- MIC (C. neoformans; strain DUMC 122.01): 4 µg/mL
- MIC (C. neoformans; strain H99): 2 µg/mL
- MIC (F. oxysporum): 16 µg/mL
- MIC (C. albicans [4]; Candida albicans, strain SC5314, read-out: MIC): 8 µg/mL
- MIC (C. albicans [4]; Candida albicans, strain TWO #15, fluconazole-resistant, read-out: MIC): 4 µg/mL
- MIC (C. albicans [4]; strain TWO #17, fluconazole-resistant): 4 µg/mL
- MIC (C. auris [5]; strain 0381, drug susceptible): 16 µg/mL
- MIC (C. auris [5]; strain 0390, multi-drug resistant): 4 µg/mL
- activity compared to cetylpyridinium chloride (P. aeruginosa; P. aeruginosa): more active
- MIC (P. aeruginosa; Pseudomonas aeruginosa, strain PAO1): 32 µg/mL
- MIC (S. aureus): 16 µg/mL
- FICI (C. albicans [2]; B with Amphotericin B): 0.75
- FICI (C. albicans [2]; B with Fluconazole): 8.25
- MIC (C. albicans [2]; [12]): 4 µg/mL
- MIC (C. albicans [2]; checkerboard B x Fluconazole): 16 µg/mL
- MICC (MIC in combination) (C. albicans [2]; [12]): 1 µg/mL
- MICC (MIC in combination) (C. albicans [2]; checkerboard B x Fluconazole): 4 µg/mL
- reduction of concentration at FIC relative to single agent (C. albicans [2]; combination with fluconazole): 4 fold
- interaction with clinical antifungal (C. albicans [2]; with amphotericin B): indifferent (2 < FICI < 4 = indifferent)
- interaction with clinical antifungal (C. albicans [2]; with caspofungin): indifferent (2 < FICI < 4 = indifferent)
- interaction with clinical antifungal (C. albicans [2]; with fluconazole): antagonistic
- MIC (A. fumigatus [6]): 16 µg/mL
- FICI (A. fumigatus [6]; B with Voriconazole): 0.625
- MICC (MIC in combination) (A. fumigatus [6]): 2 µg/mL
- interaction with clinical antifungal (A. fumigatus [6]; with voriconazole): indifferent (2 < FICI < 4 = indifferent)
- IC50 [7]: 3.9 µg/mL
- DIC images of hyphae [8]: loss of refractivity and fragmentation of hyphae
- propidium iodide staining [8]: uniform uptake of dye
- red blood cell lysis LD50 (red blood cells): 78.6 µg/mL
- LD50, cell lysis assay (HepG2 cells; HepG2, LDH release, 24 h): 9 µg/mL
- LD50, metabolic activity assay (HepG2 cells; HepG2, XTT, 24 h): 20 µg/mL
- LD50, toxicity against human cell lines (HepG2 cells; readout not given): 20 µg/mL
- change in MIC with glycerol instead of glucose as carbon source (C. albicans [9]): not observed

SMILES: COc1ccc(F)c(-c2ccc(C(=O)C[n+]3ccc(N)cc3)cc2)c1.[Br-] [Compound C]
- red blood cell lysis LD50 (red blood cells): > 1000 µg/mL
- antifungal activity [10]: inactive; also recorded: no antifungal activity

SMILES: N=C(N)c1ccc(OCCCC2CCN(CCCOc3ccc(C(=N)N)cc3)CC2)cc1 [Compound T-2307]
- MIC on 2% glycerol compared to 2% dextrose (C. albicans [11]): decreases dramatically

SMILES: OC(Cn1cncn1)(Cn1cncn1)c1ccc(F)cc1F [Fluconazole, reference compound]
- MIC (C. albicans [2]; checkerboard B x Fluconazole): 0.125 µg/mL
- MICC (MIC in combination) (C. albicans [2]; checkerboard B x Fluconazole): 1 µg/mL
- increase in fluconazole concentration in the combination (C. albicans [2]; combination with compound B): 8 fold

SMILES: Cc1cc[n+](CC(=O)c2ccc(-c3ccc(Oc4ccccc4)cc3)cc2)cc1.[Cl-] [KAP-3]
- MIC (A. fumigatus [3]; [13]): 8 µg/mL
- MIC (C. albicans [4]; [14]): 4 µg/mL

SMILES: C[C@@H](c1ncncc1F)[C@](O)(Cn1cncn1)c1ccc(F)cc1F [Voriconazole, reference compound]
- MIC (A. fumigatus [6]): 0.25 µg/mL
- MICC (MIC in combination) (A. fumigatus [6]): 0.125 µg/mL

SMILES: CCCCCCCCCCCCCCCC[n+]1ccccc1 [cetylpyridinium chloride]
- LD50, toxicity against human cell lines (human cell lines): 6 µg/mL

SMILES: N=C(NCCCCCCNC(=N)NC(=N)Nc1ccc(Cl)cc1)NC(=N)Nc1ccc(Cl)cc1.O=C(O)[C@H](O)[C@@H](O)[C@H](O)[C@H](O)CO.O=C(O)[C@H](O)[C@@H](O)[C@H](O)[C@H](O)CO [chlorhexidine gluconate]
- activity against C. auris colonization of skin (C. auris [1]; comparison stated in Example 2): minimally active

More lines, now with the values ahead:

- MIC (A. fumigatus [3]; [13]): 16 µg/mL
- MIC (C. albicans [4]; [14]): 1 µg/mL
SMILES: Nc1cc[n+](CC(=O)c2ccc3c(c2)OC(c2cccc(C(F)(F)F)c2)(c2cccc(C(F)(F)F)c2)O3)cc1.[Cl-] [KAP-1]

- MIC (A. fumigatus [3]; [13]): 16 µg/mL
- MIC (C. albicans [4]; [14]): 8 µg/mL
SMILES: Cc1ccc(-c2ccc(C(=O)C[n+]3ccc(N)cc3)cc2)c2ccccc12.[Cl-] [KAP-2]

- MIC (A. fumigatus [3]; [13]): 16 µg/mL
- MIC (C. albicans [4]; [14]): 4 µg/mL
SMILES: Cc1cc[n+](CC(=O)c2ccc(-c3ccc(Oc4ccc(F)cc4)cc3)cc2)cc1.[Cl-] [KAP-4]

- MIC (A. fumigatus [3]; [13]): > 64 µg/mL
SMILES: Nc1cc[n+](CC(=O)c2ccc(Oc3ccccc3)cc2)cc1.[Cl-] [KAP-5]
